Several values for one entry are separate records, joined by “and”; a condition that tells them apart may be missing. Identical values can stand only once. Toxic doses and inconclusive results are not listed. Rule for the calls: active = survival T/C of 150% or more; inactive = T/C below 125% in these data.
System: CD2F1 mice, L1210 leukemia ip, survival T/C
Experiment: NCI In Vivo Anticancer Drug Screen. Data for tumor model L1210 Leukemia (intraperitoneal) in CD2F1 (CDF1) mice
Conditions: endpoint: mean survival time, higher = longer survival
In short: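 Ratio T/C, where T is the treated-group value and C the vehicle-dosed control value, from mice implanted with a transplantable tumor.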

[1] = dose: 100.0 mg/kg/injection, schedule: Q01DX009 (ip), vehicle: saline with Tween-80
[2] = dose: 100.0 mg/kg/injection, schedule: Q04DX003 (ip), vehicle: saline with Tween-80
[3] = dose: 200.0 mg/kg/injection, schedule: Q01DX009 (ip), vehicle: saline with Tween-80
[4] = dose: 200.0 mg/kg/injection, schedule: Q04DX003 (ip), vehicle: saline with Tween-80
[5] = dose: 400.0 mg/kg/injection, schedule: Q01DX009 (ip), vehicle: saline with Tween-80
[6] = dose: 400.0 mg/kg/injection, schedule: Q04DX003 (ip), vehicle: saline with Tween-80
[7] = dose: 100.0 mg/kg/injection, schedule: Q04DX003 (ip), vehicle: saline
[8] = dose: 200.0 mg/kg/injection, schedule: Q04DX003 (ip), vehicle: saline
[9] = dose: 25.0 mg/kg/injection, schedule: Q01DX009 (ip), vehicle: saline with Tween-80
[10] = dose: 50.0 mg/kg/injection, schedule: Q01DX009 (ip), vehicle: saline with Tween-80

Measured: T/C

Cn1c(=O)c2c(ncn2CCNCC(O)c2ccc(O)c(O)c2)n(C)c1=O (stereo not drawn)
inactive: dose: 12.5 mg/kg/injection, schedule: Q01DX005 (ip), vehicle: water 100 % of control | dose: 25.0 mg/kg/injection, schedule: Q01DX005 (ip), vehicle: water 106 % of control | dose: 50.0 mg/kg/injection, schedule: Q01DX005 (ip), vehicle: water 97 % of control | dose: 100.0 mg/kg/injection, schedule: Q01DX005 (ip), vehicle: water 101 % of control | dose: 200.0 mg/kg/injection, schedule: Q01DX005 (ip), vehicle: water 106 % of control

CN(C)c1ccc(/C=C(\C#N)c2ccc(Cl)cc2)c(Cl)c1
inactive: [1] 90 % of control | [2] 86 % of control | [3] 94 % of control | [4] 89 % of control | [5] 90 % of control | [6] 86 % of control

CC12CCC3C(CCC4=CC(=O)C(C(O)(C(F)(F)F)C(F)(F)F)CC43C)C1CC(C(O)(C(F)(F)F)C(F)(F)F)C2=O (stereo not drawn)
inactive: dose: 100.0 mg/kg/injection, schedule: Q01DX009 (sc), vehicle: steriod suspending solution 90 % of control | dose: 200.0 mg/kg/injection, schedule: Q01DX009 (sc), vehicle: steriod suspending solution 95 % of control | dose: 400.0 mg/kg/injection, schedule: Q01DX009 (sc), vehicle: steriod suspending solution 92 % of control

CCC/C=N\O
inactive: [7] 110 % of control | [8] 93 % of control | dose: 400.0 mg/kg/injection, schedule: Q04DX003 (ip), vehicle: saline 100 % of control

CCN(CC)Cc1cccc(Nc2cc(C)nc(/N=C(\N)Nc3ccc(Cl)c(Cl)c3)n2)c1
inactive: dose: 9.5 mg/kg/injection, schedule: Q01DX001 (ip), vehicle: other 102 % of control | dose: 19.0 mg/kg/injection, schedule: Q01DX001 (ip), vehicle: other 96 % of control | dose: 38.0 mg/kg/injection, schedule: Q01DX001 (ip), vehicle: other 95 % of control

CCOc1ccc(-c2nnc(Nc3ccc(S(=O)(=O)N4CCCCC4)cc3)s2)cc1
inactive: [9] 95 % of control | [10] 90 % of control | [1] 86 % of control

S=C(Nc1ccc(Cl)c(Cl)c1)N1c2ccccc2-n2cccc2C1c1cccnc1 (stereo not drawn)
inactive: dose: 12.5 mg/kg/injection, schedule: Q01DX009 (ip), vehicle: Klucel (hydroxypropylcellulose) (HPC) 96 % of control and 104 % of control | dose: 25.0 mg/kg/injection, schedule: Q01DX009 (ip), vehicle: Klucel (hydroxypropylcellulose) (HPC) 98 % of control and 105 % of control | dose: 50.0 mg/kg/injection, schedule: Q01DX009 (ip), vehicle: Klucel (hydroxypropylcellulose) (HPC) 104 % of control and 109 % of control | dose: 100.0 mg/kg/injection, schedule: Q01DX009 (ip), vehicle: Klucel (hydroxypropylcellulose) (HPC) 113 % of control and 114 % of control and 107 % of control | dose: 200.0 mg/kg/injection, schedule: Q01DX009 (ip), vehicle: Klucel (hydroxypropylcellulose) (HPC) 115 % of control and 120 % of control and 123 % of control | dose: 400.0 mg/kg/injection, schedule: Q01DX009 (ip), vehicle: Klucel (hydroxypropylcellulose) (HPC) 112 % of control

O=c1[nH]cc(Cc2cccc(OCc3ccccc3)c2)c(=O)[nH]1
inactive: dose: 75.0 mg/kg/injection, schedule: Q01DX001 (ip), vehicle: saline with Tween-80 97 % of control | dose: 150.0 mg/kg/injection, schedule: Q01DX001 (ip), vehicle: saline with Tween-80 98 % of control | dose: 300.0 mg/kg/injection, schedule: Q01DX001 (ip), vehicle: saline with Tween-80 89 % of control

CN(C)c1ccc(N=Nc2ccccc2)cc1
inactive: dose: 31.25 mg/kg/injection, schedule: Q01DX009 (ip), vehicle: saline with Tween-80 98 % of control | dose: 62.5 mg/kg/injection, schedule: Q01DX009 (ip), vehicle: saline with Tween-80 96 % of control | dose: 62.5 mg/kg/injection, schedule: Q04DX003 (ip), vehicle: saline with Tween-80 93 % of control | dose: 125.0 mg/kg/injection, schedule: Q04DX003 (ip), vehicle: saline with Tween-80 95 % of control

N#Cc1c(F)c(F)c(Oc2c(F)c(F)c(F)c(F)c2F)c(F)c1Oc1c(F)c(F)c(F)c(F)c1F
inactive: [2] 96 % of control | [4] 93 % of control | [6] 88 % of control

NC1=CC(=O)c2ccccc2C1=O
inactive: [10] 96 % of control | [1] 100 % of control

COc1ccccc1OC(=O)Nc1cc([N+](=O)[O-])ccc1C
inactive: [2] 89 % of control | [4] 97 % of control | [6] 87 % of control

CCNc1ncc2ccccc2c1-c1ccc(NCCN(CCCl)CCCl)cc1
inactive: dose: 25.0 mg/kg/injection, schedule: Q04DX003 (ip), vehicle: water 98 % of control | dose: 50.0 mg/kg/injection, schedule: Q04DX003 (ip), vehicle: water 100 % of control | dose: 100.0 mg/kg/injection, schedule: Q04DX003 (ip), vehicle: water 90 % of control

[Cl][Hg][CH2]CN1CCCCC1
inactive: dose: 25.0 mg/kg/injection, schedule: Q04DX002 (ip), vehicle: saline with Tween-80 94 % of control | dose: 50.0 mg/kg/injection, schedule: Q04DX002 (ip), vehicle: saline with Tween-80 94 % of control | dose: 100.0 mg/kg/injection, schedule: Q04DX002 (ip), vehicle: saline with Tween-80 94 % of control

CN(C)[C@@H]1C(=O)C(C(N)=O)=C(O)[C@@]2(O)C(=O)C3=C(O)c4c(O)ccc(Cl)c4[C@@](C)(O)[C@H]3C[C@@H]12
inactive: dose: 12.5 mg/kg/injection, schedule: Q01DX009 (ip), vehicle: saline with Tween-80 98 % of control | dose: 12.5 mg/kg/injection, schedule: Q01DX009 (ip), vehicle: saline 107 % of control | [9] 97 % of control | dose: 25.0 mg/kg/injection, schedule: Q01DX009 (ip), vehicle: saline 101 % of control | [10] 93 % of control and 108 % of control | dose: 50.0 mg/kg/injection, schedule: Q01DX009 (ip), vehicle: saline 103 % of control | [1] 104 % of control and 111 % of control | dose: 100.0 mg/kg/injection, schedule: Q01DX009 (ip), vehicle: saline 113 % of control | [3] 102 % of control

COc1ccc(CCN)cc1O
inactive: dose: 75.0 mg/kg/injection, schedule: Q01DX001 (ip), vehicle: saline 98 % of control | dose: 150.0 mg/kg/injection, schedule: Q01DX001 (ip), vehicle: saline 98 % of control | dose: 300.0 mg/kg/injection, schedule: Q01DX001 (ip), vehicle: saline 98 % of control

CS(=O)(=O)Nc1ccc(CC#N)cc1
inactive: [1] 98 % of control | [2] 101 % of control | [3] 101 % of control | [4] 107 % of control | [5] 102 % of control | [6] 109 % of control

OC(CI)C(O)C(O)C(O)CI (stereo not drawn) (tested in a mixture with another compound)
inactive: dose: 50.0 mg/kg/injection, schedule: Q01DX001 (ip), vehicle: saline with Tween-80 96 % of control | dose: 100.0 mg/kg/injection, schedule: Q01DX001 (ip), vehicle: saline with Tween-80 100 % of control | dose: 200.0 mg/kg/injection, schedule: Q01DX001 (ip), vehicle: saline with Tween-80 96 % of control

CC(C(=O)c1ccccc1)N(C)Cc1ccccc1 (stereo not drawn)
inactive: dose: 50.0 mg/kg/injection, schedule: Q04DX003 (ip), vehicle: saline 98 % of control | [7] 96 % of control | [8] 93 % of control

CC(=O)Nc1nc(Br)c2ccccc2c1-c1ccc(N(CCOS(C)(=O)=O)CCOS(C)(=O)=O)cc1
inactive: dose: 12.5 mg/kg/injection, schedule: Q04DX003 (ip), vehicle: DMSO 105 % of control | dose: 25.0 mg/kg/injection, schedule: Q04DX003 (ip), vehicle: DMSO 105 % of control | dose: 50.0 mg/kg/injection, schedule: Q04DX003 (ip), vehicle: DMSO 110 % of control | dose: 100.0 mg/kg/injection, schedule: Q04DX003 (ip), vehicle: DMSO 121 % of control
